These results are taken from US12642271B2, “Active compound combinations comprising a (thio)carboxamide derivative and a fungicidal compound” (Bayer CropScience Aktiengesellschaft, priority 2011, dated 2026).

Where “and” joins values, the source holds several entries; their conditions need not be identical. Equal values may be shown once. Read-outs that look alike come from different tables or passages of the source.

The test system of one test is Alternaria solani. In words: Alternaria test (tomatoes)/preventive. It is filed as in vivo. The note with it: Alternaria solani, 72 h, read-out: Efficacy in % found.
Another test relates to Leptosphaeria nodorum. Description: Leptosphaeria nodorum test (wheat)/preventive. The format is in vivo. The settings on record: for pest or weed control at 10 ppm / pest or weed control at 40 ppm / pest or weed control at 80 ppm: Parastagonospora nodorum, 192 h, read-out: Efficacy in % found; for pest or weed control at 40 ppm: 40 ppm a.i.
The subject of the next test is Venturia inaequalis. In words: Venturia test (apples)/preventive. The settings on record: for pest or weed control at 0.5 ppm / pest or weed control at 0.25 ppm: Venturia inaequalis, 240 h; for Efficacy in % found: Table 2d.
In test [1] the test system is Fusarium nivale (var. majus). In words: Fusarium nivale (var. majus)-test (wheat)/preventive. The note with it: for pest or weed control at 10 ppm / pest or weed control at 40 ppm: Microdochium nivale, in Triticum aestivum, 120 h.
Experimental: After the spray coating has been dried, the plants are slightly injured by using a sandblast and afterwards they are sprayed with a conidia suspension of Fusarium nivale (var. majus).
The plants are placed in the greenhouse under a translucent incubation cabinet at a temperature of approximately 10° C. and a relative atmospheric humidity of approximately 100%.
The test is evaluated 5 days after the inoculation.
In a further test the test system is Septoria tritici. In words: Septoria tritici-test (wheat)/preventive. The format is in vivo. The note with it: preventive, evaluated 21 days after inoculation.
In a further test the test system is Phytophthora infestans. Description: whole plant or invertebrate. The format is in vivo.
A further test has as its system Sphaerotheca fuliginea. In words: Sphaerotheca test (cucumbers)/preventive. It is filed as in vivo. The note with it: for pest or weed control at 0.25 ppm: 0.25 ppm a.i.; for Efficacy in % found: Table 4d.
Another test has as its system Puccinia triticina. In words: Puccinia triticina-test (wheat)/preventive. The note with it: preventive, evaluated 8 days after inoculation. It is filed as in vivo.
Test [2] concerns Blumeria graminis f.sp. hordei. In words: Blumeria test (barley)/preventive. It is filed as in vivo.
The test system of the next test is Pyrenophora teres. Description: Pyrenophora teres-test (barley)/preventive. It is filed as in vivo. The note with it: preventive, evaluated 8 days after inoculation.
Setting [3] is: read-out: Efficacy in % found, Table 2b, 0.25 ppm a.i.
The mark [4] stands for this setting: Zymoseptoria tritici, 504 h, application rate 10 ppm a.i., read-out: Efficacy in % found.
Where [5] appears, read: Phytophthora infestans, 72 h, read-out: Efficacy in % found.
Setting [6] is: Podosphaera fuliginea, 168 h, Table 4c, read-out: Efficacy in % found.
Where [7] appears, read: application rate 10 ppm, wheat, preventive, evaluated 8 days after inoculation.
The mark [8] stands for this setting: Blumeria graminis, 168 h, Table 6d, 10 ppm, read-out: Efficacy in % found.
Setting [9] is: read-out: Efficacy in % found, Table 8c, 10 ppm a.i.

Experimental for Venturia inaequalis: After the spray coating has dried on, the plants are inoculated with an aqueous conidia suspension of the causal agent of apple scab (Venturia inaequalis) and then remain for 1 day in an incubation cabinet at approximately 20° C. and a relative atmospheric humidity of 100%.
The plants are then placed in a greenhouse at approximately 21° C. and a relative atmospheric humidity of approximately 90%.
The test is evaluated 10 days after the inoculation.

For the molecule `CC(C)c1ccccc1CN(C(=O)c1c(C(F)F)nn(C)c1F)C1CC1` [A1, N-cyclopropyl-3-(difluoromethyl)-5-fluoro-N-(2-isopropylbenzyl)-1-methyl-1H-pyrazole-4-carboxamide], the pest or weed control at 0.5 ppm in the test with Alternaria solani (Table 3a, 0.5 ppm a.i.) stood at 38%; with Alternaria solani (Table 3b, 0.5 ppm), 59%; in the test with Alternaria solani (Table 3c, 0.5 ppm), 16%; in the test on Venturia inaequalis (read-out: Efficacy in % found, Table 2a, 0.5 ppm a.i.) it was 57%; in the test on Venturia inaequalis (read-out: Efficacy in % found, Table 2f, 0.5 ppm a.i.), 29%; with Sphaerotheca fuliginea (Podosphaera fuliginea, 168 h, Table 4a, 0.5 ppm a.i., read-out: Efficacy in % found) it was 69%. The pest or weed control at 0.25 ppm with Alternaria solani (Table 3b) was determined as 53%; in the test on Venturia inaequalis (setting [3]) it was 31%; in the test on Venturia inaequalis (read-out: Efficacy in % found, Table 2c, 0.25 ppm a.i.) it was 0%; with Phytophthora infestans (setting [5]) it was 0%; in the test with Sphaerotheca fuliginea (Podosphaera fuliginea, 168 h, Table 4a, read-out: Efficacy in % found), 19%; in the test with Sphaerotheca fuliginea (Podosphaera fuliginea, 168 h, Table 4b, read-out: Efficacy in % found) it was 48%. Moreover, in the test on Sphaerotheca fuliginea (setting [6]), the pest or weed control at 0.25 ppm was found to be 21%. For the same molecule, the pest or weed control at 10 ppm stood at 29% in the test with Leptosphaeria nodorum (Table 9a, 10 ppm a.i.); 0% in the test on Leptosphaeria nodorum (Table 9b, 10 ppm a.i.); 50% in the test with Leptosphaeria nodorum (Table 9c, 10 ppm a.i.); 0% in test [1] (read-out: Efficacy in % found, Table 8a, 10 ppm); 50% with Septoria tritici (setting [4]). In addition, the pest or weed control at 40 ppm with Leptosphaeria nodorum (Table 9a) amounted to 71%; in test [1] (read-out: Efficacy in % found, Table 8a, 40 ppm) it was 29%. In the test on Phytophthora infestans (setting [5]), the pest or weed control at 100 ppm worked out at 0%. For the same molecule, the pest or weed control at 62.5 ppm in the test with Puccinia triticina (Puccinia triticina, 192 h, application rate 62.5 ppm a.i., read-out: Efficacy in % found) is 57%.

On to `Cn1nc(C(F)F)c(C(=O)N(Cc2c(C(F)(F)F)ccc(Cl)c2F)C2CC2)c1F` [A18, N-[3-chloro-2-fluoro-6-(trifluoromethyl)benzyl]-N-cyclopropyl-3-(difluoromethyl)-5-fluoro-1-methyl-1H-pyrazole-4-carboxamide], for which the pest or weed control at 0.5 ppm was found to be 30% in the test on Alternaria solani (Table 3a, 0.5 ppm a.i.) and 43% with Alternaria solani (Table 3b, 0.5 ppm). For the same molecule, the pest or weed control at 0.25 ppm with Alternaria solani (Table 3b) amounted to 30%; with Venturia inaequalis (setting [3]) it was 0%; with Phytophthora infestans (setting [5]), 0%; with Sphaerotheca fuliginea (setting [6]), 13%. In addition, the pest or weed control at 10 ppm in the test on Leptosphaeria nodorum (setting [7]) is 0%; in test [2] (Blumeria graminis, 168 h, Table 6e, 10 ppm a.i., read-out: Efficacy in % found) it was 29%; in test [2] (setting [8]), 56%; in test [1] (read-out: Efficacy in % found, Table 8b, 10 ppm a.i.) it was 43%; in the test with Septoria tritici (setting [4]) it was 89%; in the test on Puccinia triticina (Puccinia triticina, 192 h, application rate 10 ppm a.i., read-out: Efficacy in % found) it was 33%. The pest or weed control at 100 ppm in the test on Phytophthora infestans (setting [5]) came to 32%.

Consider `OC(Cc1ccccc1Cl)(Cn1nc[nH]c1=S)C1(Cl)CC1` (centres unmarked) [B1.41, prothioconazole], for which, in the test on Alternaria solani (Table 3c, 2 ppm), the pest or weed control at 2 ppm stood at 0%. Moreover, the pest or weed control at 80 ppm in the test on Septoria tritici (Zymoseptoria tritici, 504 h, application rate 80 ppm a.i., read-out: Efficacy in % found) was determined as 43%; in the test with Puccinia triticina (Puccinia triticina, 192 h, application rate 80 ppm a.i., read-out: Efficacy in % found), 11%. Also, the “Efficacy in % found” value in the test with Pyrenophora teres (application rate 20 ppm a.i.) was 14% and 22%. Also, in the test on Puccinia triticina (Puccinia triticina, 192 h, application rate 20 ppm a.i., read-out: Efficacy in % found), the pest or weed control at 20 ppm was 11%.

`CC(C)(C)C(O)(CCc1ccc(Cl)cc1)Cn1cncn1` (centres unmarked) [B1.47, tebuconazole]: the pest or weed control at 10 ppm with Leptosphaeria nodorum (setting [7]) was determined as 33%; in test [2] (Blumeria graminis, 168 h, Table 6f, 10 ppm a.i., read-out: Efficacy in % found), 50%; in test [2] (setting [8]) it was 33%; in test [1] (setting [9]), 25%. Moreover, the pest or weed control at 40 ppm in [1] (read-out: Efficacy in % found, Table 8e, 40 ppm a.i.) was found to be 0%; in the test on Septoria tritici (Zymoseptoria tritici, 504 h, application rate 40 ppm a.i., read-out: Efficacy in % found), 71%. The pest or weed control at 4 ppm with Puccinia triticina (Puccinia triticina, 192 h, application rate 4 ppm a.i., read-out: Efficacy in % found) was determined as 33%.

On to `O=C(NCCc1ncc(C(F)(F)F)cc1Cl)c1ccccc1C(F)(F)F` [B2.6, fluopyram], for which the pest or weed control at 80 ppm in the test with Leptosphaeria nodorum (Table 9a, 80 ppm a.i.) is 0%; with Leptosphaeria nodorum (application rate 80 ppm, wheat, preventive, evaluated 8 days after inoculation), 0%. For the same molecule, the pest or weed control at 20 ppm is 11% in test [2] (Blumeria graminis, 168 h, Table 6d, 20 ppm, read-out: Efficacy in % found) and 57% in the test with Septoria tritici (Zymoseptoria tritici, 504 h, application rate 20 ppm a.i., read-out: Efficacy in % found). Also, in the test with Pyrenophora teres (application rate 20 ppm a.i.), the “Efficacy in % found” value came to 57%.

For the molecule `Cn1cc(C(=O)Nc2ccccc2-c2cc(F)c(F)c(F)c2)c(C(F)F)n1` [B2.8, fluxapyroxad], the “Efficacy in % found” value was found to be 0% with Leptosphaeria nodorum (setting [7]); 19% in the test on Venturia inaequalis (0.25 ppm a.i.); 0% in the test on Septoria tritici (application rate 10 ppm a.i.); 0% in the test on Sphaerotheca fuliginea (0.5 ppm a.i.); 0% in the test on Puccinia triticina (application rate 10 ppm a.i.); 67% with Puccinia triticina (application rate 40 ppm a.i.).

`Cc1nn(C)c(F)c1C(=O)Nc1ccccc1C(C)CC(C)C` (centres unmarked) [B2.20, penflufen]: the “Efficacy in % found” value came out at 0% in the test on Leptosphaeria nodorum (application rate 20 ppm, wheat, preventive, evaluated 8 days after inoculation); 14% in test [1] (Table 8a, 20 ppm); 29% in test [1] (Table 8b, 20 ppm a.i.); 29% with Septoria tritici (application rate 20 ppm a.i.); 29% in the test with Pyrenophora teres (application rate 20 ppm a.i.); 0% in the test on Sphaerotheca fuliginea (0.5 ppm a.i.).

On to `Cn1cc(C(=O)Nc2ccccc2C2CC2C2CC2)c(C(F)F)n1` (centres unmarked) [B2.22, sedaxane], for which the “Efficacy in % found” value was determined as 0% in the test on Leptosphaeria nodorum (Table 9a, 80 ppm a.i.); 53% with Venturia inaequalis (0.5 ppm a.i.); 0% in test [1] (Table 8e, 80 ppm a.i.); 14% with Septoria tritici (application rate 20 ppm a.i.); 0% with Pyrenophora teres (application rate 20 ppm a.i.).

Regarding `CO/C=C(/C(=O)OC)c1ccccc1Oc1cc(Oc2ccccc2C#N)ncn1` [B3.3, azoxystrobin], the “Efficacy in % found” value was 0% in [2] (Table 6a, 10 ppm a.i.); 0% in test [1] (Table 8e, 40 ppm a.i.); 29% with Septoria tritici (application rate 10 ppm a.i.); 50% in the test on Phytophthora infestans (Table 1b, 1 ppm a.i.); 50% with Sphaerotheca fuliginea (2 ppm a.i.).

Consider `CO/N=C(/C1=NOCCO1)c1ccccc1Oc1ncnc(Oc2ccccc2Cl)c1F` [B3.12, fluoxastrobin], for which the pest or weed control at 40 ppm with Leptosphaeria nodorum (Table 9a) worked out at 43%. Also, the pest or weed control at 10 ppm in the test with Leptosphaeria nodorum (setting [7]) came to 0%; in test [1] (setting [9]), 50%; in [1] (read-out: Efficacy in % found, Table 8e, 10 ppm a.i.), 43%; with Septoria tritici (setting [4]) it was 14%. For the same molecule, the pest or weed control at 0.5 ppm in the test on Venturia inaequalis (read-out: Efficacy in % found, Table 2b, 0.5 ppm a.i.) was determined as 61%. In addition, the pest or weed control at 2 ppm in the test with Phytophthora infestans (setting [5]) was 49%.

In the case of `Cc1ccc(C(C)NC(=O)[C@@H](NC(=O)OC(C)C)C(C)C)cc1` (some centres unmarked) [B9.4, iprovalicarb], the “Efficacy in % found” value in test [2] (Table 6e, 100 ppm a.i.) is recorded as 0%; in the test on Pyrenophora teres (application rate 100 ppm a.i.) it was 33%; in the test on Phytophthora infestans (Table 1a, 5 ppm a.i.) it was 48%.

As for metalaxyl [B12.9], the “Efficacy in % found” value came to 33% in the test with Leptosphaeria nodorum (Table 9c, 100 ppm a.i.); 0% in the test with Leptosphaeria nodorum (application rate 400 ppm a.i., wheat, preventive, evaluated 8 days after inoculation); 10% in the test with Septoria tritici (application rate 100 ppm a.i.); 18% with Phytophthora infestans (Table 1a, 5 ppm a.i.); 11% in the test on Puccinia triticina (application rate 400 ppm a.i.).
